Measured values reported in publication PMC4645114, “Discovery of Novel ROCK1 Inhibitors via Integrated Virtual Screening Strategy and Bioassays” (Scientific Reports, 2015).
Where “and” joins values, the source holds several entries; their conditions need not be identical. Equal entries are not always repeated.

Experiments:
ROCK1 = target: T1, ROCK1 (Homo sapiens, UniProt Q13464); test: Z′-LYTE kinase assay, ROCK1 enzyme activity; format: biochemical
T1 construct: 15 μl kinase reaction volume with 5 ng ROCK1 enzyme
Experimental: Kinase inhibition was measured by using the Z′-LYTE™ Kinase Assay Kit with Ser/Thr 7 peptide substrate (Invitrogen, cat. PV3180). Compounds were tested on three individual times with eight point dilutions performed in duplicate to determine the average IC50 values. The assay conditions were optimized to 15 μl kinase reaction volume with 5 ng ROCK1 enzyme in 50 mM HEPES (pH = 7.5), 10 mM MgCl2, 0.01% Brij-35 and 1 mM EGTA. Initially, the reaction was incubated for 1 hour at room temperature in the presence of 1.5 μM peptide substrate and 12.5 μM ATP for ROCK1. Then, 5 μL development reagent A was added and the assay plate was incubated for another 1 hour. Finally, […] stop reagent was added and the assay plate was shaken for 1 hour. The coumarin (ex. 400 nm, em. 445 nm) and fluorescein (ex. 400 nm, em. 520 nm) emission signals were measured on a fluorescence plate reader (Thermo Scientific Varioskan Flash).

[1] = test system: phosphorylation of cofilin (ROCK pathway) in HUVEC; test: Western blotting of cofilin phosphorylation in HUVEC; format: cell-based, Human; details: compared with the control group
Experimental: Human umbilical vein endothelial cells (HUVEC, ATCC, Manassas, USA) were cultured and maintained in the F-12 K medium with 2 mM L-glutamine, 1.5 g/L sodium bicarbonate, 100 μg/mL heparin, 30 μg/mL endothelial cell growth supplement and 10% fetal bovine serum (FBS) at 37 °C in a humidified atmosphere of 5% CO2. Cells were exposed to culture medium with 10% FBS for at least 1 day before experiments. Only 3–6 passages of cells were used in this study.
HUVEC was pretreated with different targeted compounds (TS-15 and TS-40) for 1 hour. Y27632 and 0.2% DMSO were used as the positive control and vehicle control, respectively. After drug treatment, cells were washed with pre-cold PBS and lysed on ice with RIPA lysis buffer for 30 min, followed by centrifugation at 12,500 g for 20 min at 4 °C. The supernatant was collected and protein concentration was determined using the BCA protein assay kit (Thermo Scientific Pierce). Aliquots of protein samples were boiled for 5 min at 95 °C and electrophoresed on 10% SDS-PAGE and then transferred to a polyvinylidene difluoride membrane (Bio-Rad, Hercules, CA, USA). Subsequently, the membrane was blocked with 5% (w/v) nonfat milk in TBS-T buffer for 1 hour at room temperature. The blots were incubated overnight at 4 °C with primary antibodies. After being washed with TBS-T for 20 min at room temperature, the membranes were further incubated with horseradish peroxidase-conjugated secondary antibodies for 2 hours at room temperature. Finally, protein bands were visualized using ECL Plus Western blotting detection reagents (GE Healthcare, Piscataway, NJ, USA). The membranes were then scanned on a Bio-Rad ChemiDoc imaging system and the intensity of the protein bands was analyzed using the Bio-Rad Image Lab software.

zebrafish embryos = test: Atorvastatin-induced cerebral hemorrhage in zebrafish; format: in vivo; parameters: hemorrhage changes compared with the disease model group: dose or concentration left out as unconfirmed; details: for Cerebral hemorrhage rate (%): then atorvastatin 24 hours; for hemorrhage changes compared with the disease model group: atorvastatin 24 hours
Experimental: Tg (fli1a:EGFP)y1; Tg (gata1a:dsRed)sd2 homozygous double transgenic zebrafish was used and maintained as described in our previous study. […] The animal experiments were carried out in “accordance” with the approved guidelines of the Animal Research Ethics Committee, University of Macau and approved by the Animal Research Ethics Committee, University of Macau.
Tg (fli1a:EGFP)y1; Tg (gata1a:dsRed)sd2 homozygous double transgenic zebrafish embryos at 22 hours post-fertilization (hpf) were pretreated with the targeted compounds (TS 15 and TS 40) for 2 hours. During this period, the positive control group was treated with […] Y27632 while the vehicle control group was given with 0.2% DMSO (solvent). Then, all the pretreated embryos washed with PBS for 3 times and challenged with 1 mM atorvastatin for 24 hours according to the reported protocol with small modifications. After that, the viability and cerebral hemorrhage changes were observed using a fluorescence microscope (Olympus IX81 Motorized Inverted Microscope, Japan) equipped with a digital camera (DP controller, Soft Imaging System, Olympus, Germany). The results were analyzed with Axiovision 4.2 (Soft Imaging System, Olympus, Germany) and the public-domain Image J software (Rasband WS, Image J; US National Institutes of Health, Bethesda, MD). The cerebral hemorrhage rate of each group was calculated by the number of zebrafish with cerebral hemorrhage to the total number of each group.

[2] = ROCK1, 12.5 μM ATP, 8-point dilutions, three individual times

T1 sequence (Q13464 whole entry): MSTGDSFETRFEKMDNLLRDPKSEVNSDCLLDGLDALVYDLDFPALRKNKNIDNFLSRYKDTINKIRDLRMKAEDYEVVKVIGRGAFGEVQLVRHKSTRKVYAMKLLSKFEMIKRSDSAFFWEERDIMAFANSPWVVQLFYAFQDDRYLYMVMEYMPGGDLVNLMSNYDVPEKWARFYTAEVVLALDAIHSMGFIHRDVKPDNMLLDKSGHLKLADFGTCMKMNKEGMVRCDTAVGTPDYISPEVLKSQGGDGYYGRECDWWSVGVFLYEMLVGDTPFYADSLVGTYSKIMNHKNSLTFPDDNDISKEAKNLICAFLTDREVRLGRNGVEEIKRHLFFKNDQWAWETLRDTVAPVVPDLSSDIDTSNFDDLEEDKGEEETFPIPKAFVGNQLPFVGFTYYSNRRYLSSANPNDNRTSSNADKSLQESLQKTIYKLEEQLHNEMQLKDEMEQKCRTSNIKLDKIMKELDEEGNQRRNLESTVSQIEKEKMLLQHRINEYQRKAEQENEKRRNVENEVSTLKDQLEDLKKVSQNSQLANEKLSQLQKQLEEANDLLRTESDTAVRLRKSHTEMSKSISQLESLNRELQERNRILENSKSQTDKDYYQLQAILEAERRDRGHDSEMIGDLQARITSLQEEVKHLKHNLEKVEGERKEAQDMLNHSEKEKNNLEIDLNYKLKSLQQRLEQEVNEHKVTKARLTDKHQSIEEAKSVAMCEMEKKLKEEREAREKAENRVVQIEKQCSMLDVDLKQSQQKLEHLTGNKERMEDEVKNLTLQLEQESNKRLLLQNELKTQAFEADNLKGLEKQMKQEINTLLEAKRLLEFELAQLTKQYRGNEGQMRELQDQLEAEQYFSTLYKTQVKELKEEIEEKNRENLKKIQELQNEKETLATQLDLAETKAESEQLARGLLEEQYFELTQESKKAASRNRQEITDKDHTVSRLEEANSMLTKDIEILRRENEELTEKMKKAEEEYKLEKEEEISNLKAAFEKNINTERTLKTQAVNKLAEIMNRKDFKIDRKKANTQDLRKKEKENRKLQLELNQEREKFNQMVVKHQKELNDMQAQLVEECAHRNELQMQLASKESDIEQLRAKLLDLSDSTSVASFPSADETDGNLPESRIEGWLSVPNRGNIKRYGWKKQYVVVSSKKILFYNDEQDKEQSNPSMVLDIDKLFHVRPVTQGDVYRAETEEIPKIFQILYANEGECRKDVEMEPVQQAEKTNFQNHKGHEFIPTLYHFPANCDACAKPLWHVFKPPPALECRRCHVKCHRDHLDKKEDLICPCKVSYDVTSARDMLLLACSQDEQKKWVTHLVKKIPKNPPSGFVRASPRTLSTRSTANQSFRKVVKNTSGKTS

For `O=c1[nH]c2ccc(-c3cc(NC4CCCC4)nc4[nH]ccc34)cc2[nH]c1=O` [TS-11], the IC50 (ROCK1; [2]) was 67.2 ± 0.57 µM.

With `OC(CN1CCOCC1)c1ccc(-c2ccnc3[nH]ccc23)cc1` (stereo not shown) [TS-15] the IC50 (ROCK1; [2]) was < 1 µM and 0.25 µM, the IC50 (ROCK1; ROCK1, value given in text) was under 0.3 µM and the “phosphorylation level of cofilin (p-cofilin band, ratio to T-cofilin)” value [1] was “significant inhibitory effects”. For the same compound, the “Cerebral hemorrhage rate (%)” value (zebrafish embryos; 6 μM pretreatment) was 79.3 ± 5.9%, the “Cerebral hemorrhage rate (%)” value (zebrafish embryos; 20 μM pretreatment) was 73.5 ± 13.0 % and the “Cerebral hemorrhage rate (%)” value (zebrafish embryos; 60 μM pretreatment) was <60 ^b,* %. The “hemorrhage changes compared with the disease model group” value (from here on “hemorrhage changes”) (zebrafish embryos) was “obviously abated”, the “inhibitory rate against cerebral hemorrhage” value (shortened to “inhibitory rate”) (zebrafish embryos; dose of 6 μM) was 79.3% and the “inhibitory rate” value (zebrafish embryos; dose of 20 μM) was 73.5%. The toxicity to zebrafish (zebrafish embryos; dose of 20 μM) was “relatively safe”, the “inhibitory rate” value (zebrafish embryos; dose of 60 μM) was under 60% and the toxicity to zebrafish (zebrafish embryos; dose of 60 μM) was “toxic”.

Work on `COCCNc1cc(-c2ccc(C3(O)CCNCC3)cc2)c2cc[nH]c2n1` [TS-16] yielded an IC50 (ROCK1; [2]) of 9.94 ± 4.33 µM.

In the case of `CNc1cc(-c2ccccc2OCCn2ccnc2)c2cc[nH]c2n1` [TS-27], the IC50 (ROCK1; [2]) is reported as 26.5 ± 1.13 µM.

`Nc1cc(-c2ccc(C3(O)CCNCC3)cc2)c2cc[nH]c2n1` [TS-28] showed an IC50 (ROCK1; [2]) of 6.71 ± 1.48 µM.

In the case of `NS(=O)(=O)c1ccc(-c2ccnc3[nH]ccc23)c(F)c1` [TS-40], the IC50 (ROCK1; [2]) is reported as < 1 µM and 0.15 µM, the IC50 (ROCK1; ROCK1, value given in text) is reported as under 0.3 µM and the “phosphorylation level of cofilin (p-cofilin band, ratio to T-cofilin)” value [1] is reported as “significant inhibitory effects”. The “Cerebral hemorrhage rate (%)” value (zebrafish embryos; 6 μM pretreatment) was 90.6 ± 7.4%, the “Cerebral hemorrhage rate (%)” value (zebrafish embryos; 20 μM pretreatment) was 78.8 ± 7.1 % and the “Cerebral hemorrhage rate (%)” value (zebrafish embryos; 60 μM pretreatment) was 66.2 ± 7.2 %. The “hemorrhage changes” value (zebrafish embryos) was “obviously abated”, the “inhibitory rate” value (zebrafish embryos; dose of 20 μM) was 78.8% and the “inhibitory rate” value (zebrafish embryos; dose of 60 μM) was 66.2%.

For `OCCCNCc1cccc(-c2ccnc3[nH]ccc23)c1` [TS-f5], the IC50 (ROCK1; [2]) was 1.55 ± 0.57 µM.

`CN(Cc1cccc(C(=O)Nc2ccc3[nH]ncc3c2)c1)Cc1cc[nH]n1` [TS-f6] gave an IC50 (ROCK1; [2]) of 12.4 ± 0.85 µM.

Compound `NCC1CCN(Cc2ccc(-c3nc(-c4ccncc4)cc(=O)[nH]3)cc2)CC1` [TS-f7] has an IC50 (ROCK1; [2]) of 28.3 ± 0.99 µM.

`O=C(NCCc1c[nH]cn1)c1coc(COc2cccc3cnccc23)n1` [TS-f10] was tested, and the IC50 (ROCK1; [2]) was 31.4 ± 1.63 µM.

For `O=S(=O)(c1ccccc1)c1ccc(-c2ccnc3[nH]ccc23)cc1` [TS-f13], the IC50 (ROCK1; [2]) was 3.2 ± 1.06 µM.

For `Cn1ncc2cc(-c3ccnc4[nH]ccc34)ccc21` [TS-f22], the IC50 (ROCK1; [2]) was < 1 µM and 0.48 µM.

`COCc1nc2cc(-c3ccnc4[nH]ccc34)ccc2o1` [TS-f25] was tested, and the IC50 (ROCK1; [2]) was 4.42 ± 1.14 µM.

`Cc1nc(-c2cccc(-c3ccnc4[nH]ccc34)c2)no1` [TS-f26] was tested, and the IC50 (ROCK1; [2]) was 3.48 ± 1.65 µM.

For `CN(Cc1cc(F)ccc1O)Cc1cccc2cnccc12` [TS-f28], the IC50 (ROCK1; [2]) was 23.05 ± 0.07 µM.

Compound `CCCCNC(=O)c1ccc(-c2ccnc3[nH]ccc23)o1` [TS-f32] has an IC50 (ROCK1; [2]) of 2.21 ± 0.21 µM.

`c1cc(OCCn2ccnc2)cc(-c2ccnc3[nH]ccc23)c1` [TS-f37] showed an IC50 (ROCK1; [2]) of 1.82 ± 0.76 µM.

For `C[C@@H](N)[C@H]1CC[C@H](C(=O)Nc2ccncc2)CC1` [Y27632, reference compound], the “phosphorylation level of cofilin (p-cofilin band, ratio to T-cofilin)” value [1] was “reduced significantly”, the “Cerebral hemorrhage rate (%)” value (zebrafish embryos; 10 μM pretreatment) was 74.4 ± 8.7 % and the “hemorrhage changes” value (zebrafish embryos) was “obviously abated”. The “inhibitory rate” value (zebrafish embryos; dose of 10 μM) was 74.4%.
